The target in this data set is Mmp7 (rat). Put plainly: reporter assay of Huesken 2005. As to conditions: siRNA. On the technique in general: Reporter assays use an easily measured gene product as a stand-in for the process of interest.

Oligonucleotides are given in HELM: sugar(base)linkage, 5' to 3'; d 2'-deoxyribose, r ribose, m 2'-O-methylribose, p phosphate. ss, as = sense and antisense strand
Also: test concentration or dose not given here.

Turning to “RNA1{r(U)p.r(C)p.r(U)p.r(A)p.r(A)p.r(A)p.r(A)p.r(C)p.r(A)p.r(A)p.r(A)p.r(G)p.r(A)p.r(A)p.r(G)p.r(G)p.r(C)p.r(C)p.r(A)p.d(T)p.d(T)}|RNA2{r(U)p.r(G)p.r(G)p.r(C)p.r(C)p.r(U)p.r(U)p.r(C)p.r(U)p.r(U)p.r(U)p.r(G)p.r(U)p.r(U)p.r(U)p.r(U)p.r(A)p.r(G)p.r(A)p.d(G)p.d(T)}$$$RNA1{StrandType:ss}|RNA2{StrandType:as}$”, the normalised inhibition (eCFP-eYFP dual reporter) worked out at 95.7%.
For “RNA1{r(G)p.r(U)p.r(U)p.r(G)p.r(C)p.r(A)p.r(G)p.r(A)p.r(A)p.r(U)p.r(U)p.r(C)p.r(U)p.r(C)p.r(A)p.r(C)p.r(U)p.r(A)p.r(A)p.d(T)p.d(T)}|RNA2{r(U)p.r(U)p.r(A)p.r(G)p.r(U)p.r(G)p.r(A)p.r(G)p.r(A)p.r(A)p.r(U)p.r(U)p.r(C)p.r(U)p.r(G)p.r(C)p.r(A)p.r(A)p.r(C)p.d(A)p.d(T)}$$$RNA1{StrandType:ss}|RNA2{StrandType:as}$” the value was 122%; for “RNA1{r(G)p.r(G)p.r(A)p.r(A)p.r(C)p.r(A)p.r(G)p.r(G)p.r(C)p.r(G)p.r(C)p.r(A)p.r(G)p.r(A)p.r(A)p.r(U)p.r(U)p.r(A)p.r(U)p.d(T)p.d(T)}|RNA2{r(A)p.r(U)p.r(A)p.r(A)p.r(U)p.r(U)p.r(C)p.r(U)p.r(G)p.r(C)p.r(G)p.r(C)p.r(C)p.r(U)p.r(G)p.r(U)p.r(U)p.r(C)p.r(C)p.d(C)p.d(A)}$$$RNA1{StrandType:ss}|RNA2{StrandType:as}$”, 104%; for “RNA1{r(A)p.r(G)p.r(U)p.r(U)p.r(C)p.r(U)p.r(U)p.r(C)p.r(G)p.r(G)p.r(U)p.r(U)p.r(U)p.r(G)p.r(C)p.r(C)p.r(G)p.r(G)p.r(A)p.d(T)p.d(T)}|RNA2{r(U)p.r(C)p.r(C)p.r(G)p.r(G)p.r(C)p.r(A)p.r(A)p.r(A)p.r(C)p.r(C)p.r(G)p.r(A)p.r(A)p.r(G)p.r(A)p.r(A)p.r(C)p.r(U)p.d(T)p.d(C)}$$$RNA1{StrandType:ss}|RNA2{StrandType:as}$”, 53.8%.
“RNA1{r(A)p.r(C)p.r(C)p.r(G)p.r(G)p.r(G)p.r(G)p.r(C)p.r(C)p.r(A)p.r(G)p.r(G)p.r(C)p.r(C)p.r(U)p.r(C)p.r(G)p.r(G)p.r(C)p.d(T)p.d(T)}|RNA2{r(G)p.r(C)p.r(C)p.r(G)p.r(A)p.r(G)p.r(G)p.r(C)p.r(C)p.r(U)p.r(G)p.r(G)p.r(C)p.r(C)p.r(C)p.r(C)p.r(G)p.r(G)p.r(U)p.d(G)p.d(C)}$$$RNA1{StrandType:ss}|RNA2{StrandType:as}$”: the normalised inhibition (eCFP-eYFP dual reporter) was found to be 11%.
Take “RNA1{r(U)p.r(U)p.r(A)p.r(C)p.r(C)p.r(U)p.r(U)p.r(C)p.r(A)p.r(C)p.r(G)p.r(A)p.r(C)p.r(U)p.r(C)p.r(U)p.r(A)p.r(A)p.r(A)p.d(T)p.d(T)}|RNA2{r(U)p.r(U)p.r(U)p.r(A)p.r(G)p.r(A)p.r(G)p.r(U)p.r(C)p.r(G)p.r(U)p.r(G)p.r(A)p.r(A)p.r(G)p.r(G)p.r(U)p.r(A)p.r(A)p.d(A)p.d(A)}$$$RNA1{StrandType:ss}|RNA2{StrandType:as}$”: the normalised inhibition (eCFP-eYFP dual reporter) amounted to 131%.
Regarding “RNA1{r(C)p.r(U)p.r(A)p.r(U)p.r(C)p.r(A)p.r(A)p.r(G)p.r(G)p.r(A)p.r(G)p.r(A)p.r(U)p.r(C)p.r(A)p.r(U)p.r(U)p.r(C)p.r(A)p.d(T)p.d(T)}|RNA2{r(U)p.r(G)p.r(A)p.r(A)p.r(U)p.r(G)p.r(A)p.r(U)p.r(C)p.r(U)p.r(C)p.r(C)p.r(U)p.r(U)p.r(G)p.r(A)p.r(U)p.r(A)p.r(G)p.d(G)p.d(T)}$$$RNA1{StrandType:ss}|RNA2{StrandType:as}$”, the normalised inhibition (eCFP-eYFP dual reporter) was 115%.
For “RNA1{r(C)p.r(U)p.r(G)p.r(A)p.r(G)p.r(G)p.r(G)p.r(A)p.r(A)p.r(A)p.r(U)p.r(G)p.r(C)p.r(A)p.r(G)p.r(A)p.r(A)p.r(G)p.r(U)p.d(T)p.d(T)}|RNA2{r(A)p.r(C)p.r(U)p.r(U)p.r(C)p.r(U)p.r(G)p.r(C)p.r(A)p.r(U)p.r(U)p.r(U)p.r(C)p.r(C)p.r(C)p.r(U)p.r(C)p.r(A)p.r(G)p.d(T)p.d(T)}$$$RNA1{StrandType:ss}|RNA2{StrandType:as}$” the value was 83.4%.
Turning to “RNA1{r(C)p.r(A)p.r(A)p.r(A)p.r(G)p.r(A)p.r(A)p.r(G)p.r(G)p.r(C)p.r(C)p.r(A)p.r(C)p.r(C)p.r(A)p.r(G)p.r(U)p.r(G)p.r(C)p.d(T)p.d(T)}|RNA2{r(G)p.r(C)p.r(A)p.r(C)p.r(U)p.r(G)p.r(G)p.r(U)p.r(G)p.r(G)p.r(C)p.r(C)p.r(U)p.r(U)p.r(C)p.r(U)p.r(U)p.r(U)p.r(G)p.d(T)p.d(T)}$$$RNA1{StrandType:ss}|RNA2{StrandType:as}$”, the normalised inhibition (eCFP-eYFP dual reporter) came out at 38.2%.
For “RNA1{r(G)p.r(U)p.r(G)p.r(A)p.r(G)p.r(G)p.r(A)p.r(C)p.r(U)p.r(C)p.r(A)p.r(G)p.r(G)p.r(C)p.r(G)p.r(U)p.r(G)p.r(A)p.r(A)p.d(T)p.d(T)}|RNA2{r(U)p.r(U)p.r(C)p.r(A)p.r(C)p.r(G)p.r(C)p.r(C)p.r(U)p.r(G)p.r(A)p.r(G)p.r(U)p.r(C)p.r(C)p.r(U)p.r(C)p.r(A)p.r(C)p.d(C)p.d(A)}$$$RNA1{StrandType:ss}|RNA2{StrandType:as}$” the value was 89.4%; for “RNA1{r(U)p.r(G)p.r(C)p.r(A)p.r(G)p.r(A)p.r(A)p.r(G)p.r(C)p.r(C)p.r(C)p.r(A)p.r(G)p.r(G)p.r(U)p.r(G)p.r(U)p.r(G)p.r(G)p.d(T)p.d(T)}|RNA2{r(C)p.r(C)p.r(A)p.r(C)p.r(A)p.r(C)p.r(C)p.r(U)p.r(G)p.r(G)p.r(G)p.r(C)p.r(U)p.r(U)p.r(C)p.r(U)p.r(G)p.r(C)p.r(A)p.d(T)p.d(T)}$$$RNA1{StrandType:ss}|RNA2{StrandType:as}$”, 61.3%; for “RNA1{r(A)p.r(G)p.r(A)p.r(A)p.r(U)p.r(U)p.r(C)p.r(U)p.r(C)p.r(A)p.r(C)p.r(U)p.r(A)p.r(A)p.r(U)p.r(G)p.r(C)p.r(C)p.r(A)p.d(T)p.d(T)}|RNA2{r(U)p.r(G)p.r(G)p.r(C)p.r(A)p.r(U)p.r(U)p.r(A)p.r(G)p.r(U)p.r(G)p.r(A)p.r(G)p.r(A)p.r(A)p.r(U)p.r(U)p.r(C)p.r(U)p.d(G)p.d(C)}$$$RNA1{StrandType:ss}|RNA2{StrandType:as}$”, 107%.
Under “RNA1{r(C)p.r(A)p.r(U)p.r(G)p.r(G)p.r(A)p.r(G)p.r(A)p.r(U)p.r(A)p.r(A)p.r(U)p.r(G)p.r(C)p.r(A)p.r(G)p.r(A)p.r(A)p.r(G)p.d(T)p.d(T)}|RNA2{r(C)p.r(U)p.r(U)p.r(C)p.r(U)p.r(G)p.r(C)p.r(A)p.r(U)p.r(U)p.r(A)p.r(U)p.r(C)p.r(U)p.r(C)p.r(C)p.r(A)p.r(U)p.r(G)p.d(A)p.d(C)}$$$RNA1{StrandType:ss}|RNA2{StrandType:as}$” stands 97.5%.
For “RNA1{r(C)p.r(U)p.r(A)p.r(C)p.r(C)p.r(U)p.r(A)p.r(U)p.r(C)p.r(A)p.r(A)p.r(G)p.r(G)p.r(A)p.r(G)p.r(A)p.r(U)p.r(C)p.r(A)p.d(T)p.d(T)}|RNA2{r(U)p.r(G)p.r(A)p.r(U)p.r(C)p.r(U)p.r(C)p.r(C)p.r(U)p.r(U)p.r(G)p.r(A)p.r(U)p.r(A)p.r(G)p.r(G)p.r(U)p.r(A)p.r(G)p.d(G)p.d(G)}$$$RNA1{StrandType:ss}|RNA2{StrandType:as}$” the value was 114%; for “RNA1{r(C)p.r(C)p.r(U)p.r(U)p.r(C)p.r(A)p.r(C)p.r(G)p.r(A)p.r(C)p.r(U)p.r(C)p.r(U)p.r(A)p.r(A)p.r(A)p.r(A)p.r(C)p.r(A)p.d(T)p.d(T)}|RNA2{r(U)p.r(G)p.r(U)p.r(U)p.r(U)p.r(U)p.r(A)p.r(G)p.r(A)p.r(G)p.r(U)p.r(C)p.r(G)p.r(U)p.r(G)p.r(A)p.r(A)p.r(G)p.r(G)p.d(T)p.d(A)}$$$RNA1{StrandType:ss}|RNA2{StrandType:as}$”, 126%.
With “RNA1{r(U)p.r(C)p.r(A)p.r(U)p.r(U)p.r(C)p.r(A)p.r(G)p.r(A)p.r(A)p.r(G)p.r(A)p.r(C)p.r(U)p.r(U)p.r(C)p.r(A)p.r(G)p.r(U)p.d(T)p.d(T)}|RNA2{r(A)p.r(C)p.r(U)p.r(G)p.r(A)p.r(A)p.r(G)p.r(U)p.r(C)p.r(U)p.r(U)p.r(C)p.r(U)p.r(G)p.r(A)p.r(A)p.r(U)p.r(G)p.r(A)p.d(T)p.d(C)}$$$RNA1{StrandType:ss}|RNA2{StrandType:as}$”, the normalised inhibition (eCFP-eYFP dual reporter) worked out at 54.7%.
Under “RNA1{r(G)p.r(G)p.r(A)p.r(C)p.r(U)p.r(C)p.r(A)p.r(G)p.r(G)p.r(C)p.r(G)p.r(U)p.r(G)p.r(A)p.r(A)p.r(C)p.r(U)p.r(U)p.r(C)p.d(T)p.d(T)}|RNA2{r(G)p.r(A)p.r(A)p.r(G)p.r(U)p.r(U)p.r(C)p.r(A)p.r(C)p.r(G)p.r(C)p.r(C)p.r(U)p.r(G)p.r(A)p.r(G)p.r(U)p.r(C)p.r(C)p.d(T)p.d(C)}$$$RNA1{StrandType:ss}|RNA2{StrandType:as}$” stands 70.4%; under “RNA1{r(C)p.r(U)p.r(U)p.r(C)p.r(C)p.r(C)p.r(A)p.r(U)p.r(U)p.r(U)p.r(G)p.r(A)p.r(U)p.r(G)p.r(G)p.r(G)p.r(C)p.r(C)p.r(A)p.d(T)p.d(T)}|RNA2{r(U)p.r(G)p.r(G)p.r(C)p.r(C)p.r(C)p.r(A)p.r(U)p.r(C)p.r(A)p.r(A)p.r(A)p.r(U)p.r(G)p.r(G)p.r(G)p.r(A)p.r(A)p.r(G)p.d(T)p.d(T)}$$$RNA1{StrandType:ss}|RNA2{StrandType:as}$”, 85%.
For “RNA1{r(C)p.r(C)p.r(G)p.r(C)p.r(A)p.r(C)p.r(U)p.r(U)p.r(C)p.r(A)p.r(G)p.r(U)p.r(G)p.r(G)p.r(G)p.r(A)p.r(A)p.r(C)p.r(A)p.d(T)p.d(T)}|RNA2{r(U)p.r(G)p.r(U)p.r(U)p.r(C)p.r(C)p.r(C)p.r(A)p.r(C)p.r(U)p.r(G)p.r(A)p.r(A)p.r(G)p.r(U)p.r(G)p.r(C)p.r(G)p.r(G)p.d(T)p.d(C)}$$$RNA1{StrandType:ss}|RNA2{StrandType:as}$”, the normalised inhibition (eCFP-eYFP dual reporter) is 91.6%.
Regarding “RNA1{r(C)p.r(A)p.r(G)p.r(U)p.r(G)p.r(C)p.r(A)p.r(G)p.r(U)p.r(G)p.r(G)p.r(A)p.r(C)p.r(A)p.r(A)p.r(A)p.r(C)p.r(U)p.r(G)p.d(T)p.d(T)}|RNA2{r(C)p.r(A)p.r(G)p.r(U)p.r(U)p.r(U)p.r(G)p.r(U)p.r(C)p.r(C)p.r(A)p.r(C)p.r(U)p.r(G)p.r(C)p.r(A)p.r(C)p.r(U)p.r(G)p.d(G)p.d(T)}$$$RNA1{StrandType:ss}|RNA2{StrandType:as}$”, the normalised inhibition (eCFP-eYFP dual reporter) was determined as 100%.

For the origin of these results see the OligoGym collection.
